9 compounds from ChEMBL document CHEMBL1201862, “PubChem BioAssay data set” (2004) can be followed below.

Among the test systems are Malme-3M; NCI/ADR-RES; SF-268; HCT-15; SW-620; UACC-257; NCI-H23; HCC 2998; NCI-H226; SK-MEL-2; U-251; OVCAR-8; SK-OV-3; NCI-H460; A549; SF-539.
Assay in all cases: NCI tumour cell line growth inhibition, 48 h

SMILES strings stand for the structures.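 Test compounds were applied to cells in 96-well plates for 48 hours at 5 doses. The concentration for 50% growth inhibition is given as GI50.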 The source made the active and inactive calls. Cut-off read from the data, not from the text of the source: active = GI50 up to about 1.1 µM and inactive = higher. A value given as a limit tells only on which side of the number the result lay.

Consider `COc1ccc2cc1Oc1ccc(cc1)C[C@H]1c3cc(c(OC)cc3CCN1C)Oc1c(O)c(OC)cc3c1[C@H](C2)N(C)CC3` [FANGCHINOLINE], for which the GI50 is 30.7 µM (inactive) in the experiment on Malme-3M; 29.4 µM (inactive) in the experiment with NCI/ADR-RES; 30.2 µM (inactive) in the experiment with SF-268; 13.3 µM in the experiment with HCT-15; 15 µM (inactive) with SW-620; 9.48 µM (inactive) with UACC-257. Besides, the GI50 with NCI-H23 was 40 µM (inactive); with HCC 2998, 17.6 µM (inactive); with NCI-H226, 39.9 µM (inactive); in the experiment on SK-MEL-2, 26.5 µM (inactive); in the experiment with U-251, 27.2 µM (inactive); in the experiment on OVCAR-8, 5.25 µM (inactive). Besides, the GI50 with SK-OV-3 was 28.4 µM (inactive); in the experiment with NCI-H460, 21.8 µM (inactive); in the experiment on A549, 31.5 µM (inactive); in the experiment on SF-539 it was 20.3 µM (inactive).
Consider `N/C(=N\O)N/N=C\c1cc([N+](=O)[O-])cc([N+](=O)[O-])c1O`, for which the GI50 with Malme-3M is > 100 µM (inactive); in the experiment on NCI/ADR-RES it was > 26 µM (inactive); in the experiment on SF-268, 62.1 µM (inactive); with HCT-15, 6.14 µM; in the experiment with SW-620 it was 13.9 µM (inactive); in the experiment on UACC-257 it was 98.2 µM (inactive). Also, the GI50 in the experiment with NCI-H23 was 28.8 µM (inactive); in the experiment with HCC 2998 it was 14.5 µM (inactive); with NCI-H226, 29.4 µM (inactive); with SK-MEL-2, > 100 µM (inactive); in the experiment on U-251, 10.5 µM (inactive); in the experiment on OVCAR-8, 6.11 µM (inactive). For the same compound, the GI50 in the experiment with SK-OV-3 was 25.5 µM (inactive); with NCI-H460 it was 2.76 µM (inactive); in the experiment on A549, 8.51 µM (inactive); in the experiment with SF-539, 18.4 µM (inactive).
`CCCCCCCCCCCC1=C(O)C(=O)C=C(O)C1=O` [EMBELIN]: the GI50 in the experiment on Malme-3M is 5.81 µM (inactive); in the experiment on NCI/ADR-RES, 6.27 µM (inactive); with SF-268 it was 3.92 µM (inactive); with HCT-15, 5.11 µM; in the experiment with SW-620, 18.3 µM (inactive); in the experiment on UACC-257 it was 6.17 µM (inactive). Besides, the GI50 with NCI-H23 was 7.05 µM (inactive); with HCC 2998 it was 4.72 µM (inactive); in the experiment on NCI-H226, 5.25 µM (inactive); in the experiment with SK-MEL-2, 5.11 µM (inactive); in the experiment on U-251, 5.02 µM (inactive); in the experiment with OVCAR-8, 2.01 µM (inactive). For the same compound, the GI50 with SK-OV-3 is 8.43 µM (inactive); in the experiment with NCI-H460 it was 2.88 µM (inactive); in the experiment with A549 it was 4.36 µM (inactive); in the experiment with SF-539, 6.76 µM (inactive).
On to `CSc1nc2c(ncn2C2OCC(O)C(O)C2O)c(=O)n1C` (centres undefined), for which the GI50 with Malme-3M was > 100 µM (inactive); with NCI/ADR-RES, > 100 µM (inactive); in the experiment with SF-268, > 100 µM (inactive); in the experiment on HCT-15 it was more than 100 µM; with SW-620, > 100 µM (inactive); with UACC-257, > 100 µM (inactive). Besides, the GI50 with NCI-H23, with HCC 2998, in the experiment with NCI-H226, in the experiment with SK-MEL-2, in the experiment with U-251 and in the experiment on OVCAR-8 was > 100 µM (inactive) each time. The GI50 in the experiment with SK-OV-3, in the experiment on NCI-H460, in the experiment on A549 and with SF-539 was > 100 µM (inactive) throughout.
Consider `ClCc1nnc2n1-c1ccc(Cl)cc1SC2`, for which the GI50 was 3.88 µM (inactive) in the experiment on Malme-3M; 1.78 µM (inactive) in the experiment on NCI/ADR-RES; 2.87 µM (inactive) in the experiment on SF-268; 4.56 µM in the experiment on HCT-15; 4.55 µM (inactive) in the experiment with SW-620; 2.16 µM (inactive) with UACC-257. Also, the GI50 with NCI-H23 was 2.35 µM (inactive); with HCC 2998 it was 4.06 µM (inactive); in the experiment with NCI-H226, 1.94 µM (inactive); with SK-MEL-2, 2.81 µM (inactive); with U-251, 6.59 µM (inactive); in the experiment with OVCAR-8 it was 4.02 µM (inactive). The GI50 was 3.56 µM (inactive) with SK-OV-3, 3.66 µM (inactive) in the experiment with NCI-H460, 5.05 µM (inactive) with A549 and 3.47 µM (inactive) with SF-539.
In the case of `C=C/C(C)=C/[C@H](C)C(=O)C[C@H](O)CC1CC(=O)NC(=O)C1`, the GI50 in the experiment on Malme-3M is 16 µM (inactive); in the experiment on NCI/ADR-RES it was 57.4 µM (inactive); in the experiment with SF-268, 36 µM (inactive); with HCT-15, 44.7 µM; with SW-620 it was 31.5 µM (inactive); in the experiment on UACC-257 it was 30.1 µM (inactive). For the same compound, the GI50 in the experiment with NCI-H23 is 36.9 µM (inactive); in the experiment with HCC 2998, 20.2 µM (inactive); in the experiment with NCI-H226, 41 µM (inactive); in the experiment on SK-MEL-2, 28.9 µM (inactive); with U-251 it was 34.5 µM (inactive); in the experiment with OVCAR-8, 24.2 µM (inactive). Also, the GI50 was > 41.9 µM (inactive) with SK-OV-3, 37.7 µM (inactive) in the experiment on NCI-H460, 51.3 µM (inactive) with A549 and 35.1 µM (inactive) in the experiment on SF-539.
As for `C#CC[C@@]12CC(=O)C[C@@H]1CCC1(C2)OCCO1.C#CC[C@]12CC(=O)CC[C@H]1CC(=O)C2`, the GI50 in the experiment with Malme-3M is > 100 µM (inactive); in the experiment with NCI/ADR-RES, > 100 µM (inactive); in the experiment on SF-268, > 100 µM (inactive); with HCT-15, more than 100 µM; in the experiment on SW-620 it was > 100 µM (inactive); with UACC-257, 90.8 µM (inactive). The GI50 in the experiment with NCI-H23, in the experiment with HCC 2998, with NCI-H226, in the experiment with SK-MEL-2, in the experiment with U-251 and in the experiment on OVCAR-8 was > 100 µM (inactive) throughout. Further, the GI50 in the experiment with SK-OV-3, in the experiment on NCI-H460, in the experiment with A549 and with SF-539 was > 100 µM (inactive) throughout.
In the case of `Cc1c(N=NN(C)C)cc[n+]([O-])c1C`, the GI50 with Malme-3M was > 100 µM (inactive); in the experiment with NCI/ADR-RES it was > 100 µM (inactive); in the experiment with SF-268 it was > 100 µM (inactive); with HCT-15 it was more than 100 µM; with SW-620, > 100 µM (inactive); with UACC-257, > 100 µM (inactive). The GI50 in the experiment with NCI-H23, in the experiment with HCC 2998, in the experiment on NCI-H226, in the experiment with SK-MEL-2, with U-251 and with OVCAR-8 was > 100 µM (inactive) in each case. For the same compound, the GI50 with SK-OV-3, with NCI-H460, with A549 and with SF-539 was > 100 µM (inactive) each time.
As to `COc1cc(C2c3cc4c(cc3[C@@H](Nc3cccc(C(C)=O)c3)C3COC(=O)[C@H]23)OCO4)cc(OC)c1O` (some centres undefined), the GI50 is 1.28 µM (inactive) with Malme-3M; 0.383 µM (active) with NCI/ADR-RES; 0.577 µM (active) in the experiment with SF-268; 0.307 µM with HCT-15; 0.2 µM (active) in the experiment with SW-620; 1.05 µM (active) in the experiment with UACC-257. Moreover, the GI50 with NCI-H23 was 0.264 µM (active); in the experiment on HCC 2998, 1.34 µM (inactive); in the experiment with NCI-H226 it was 0.236 µM (active); in the experiment with SK-MEL-2 it was 2.65 µM (inactive); in the experiment with U-251, 0.245 µM (active); in the experiment on OVCAR-8, 0.968 µM (active). Further, the GI50 with SK-OV-3 is 0.71 µM (active); in the experiment with NCI-H460 it was < 0.01 µM (active); in the experiment with A549 it was < 0.0184 µM (active); with SF-539, 0.243 µM (active).
